This passage reports drug sensitivity score results from the supplement of paper PMC9938120.

Each structure is given as a SMILES string.

Common to all, as to assay: drug sensitivity score (DSS3, normalised partial AUC of % inhibition dose-response) (DSS (score)); higher = more sensitive (stronger inhibition of viability); extreme values may be limits of the assay
The test system of one assay is FMOC02_2 (patient-derived low-grade serous ovarian cancer cells). To be noted: 72 h; library: FO5A; assay format: 2D, 384-well, CellTiter-Glo. The essentials: (§1)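 Early-passage (under 10) patient-derived ovarian cancer cells were dispensed onto 384-well flat clear-bottom plates pre-plated with compounds at five concentrations spanning a 10,000-fold range, then incubated 72 h at 37 °C, 5% CO2. Viability was read with CellTiter-Glo, and the data were processed in Breeze. The drug sensitivity score is a partial area under the percent-inhibition dose-response curve divided by the log of the upper asymptote, with higher values meaning greater sensitivity.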

Another assay concerns FMOC02_3 (patient-derived low-grade serous ovarian cancer cells). To be noted: 72 h; library: FO5A; assay format: 2D, 384-well, CellTiter-Glo. The essentials:
as §1

The test system of the next assay is FMOC03 (patient-derived mucinous ovarian cancer cells). To be noted: 72 h; library: FO5A; assay format: 2D, 384-well, CellTiter-Glo. The essentials: as §1
The next assay deals with FMOC06 (patient-derived mucinous ovarian cancer cells). The following applies: 72 h; library: FO5A; assay format: 2D, 384-well, CellTiter-Glo. The essentials:
as §1

For the next assay, the system named is FMOC09 (patient-derived high-grade serous ovarian cancer cells). The following applies: 72 h; library: FO5A; assay format: 2D, 384-well, CellTiter-Glo. The essentials:
as §1

The subject of a further assay is FMOC14 (patient-derived high-grade serous ovarian cancer cells). The following applies: 72 h; library: FO5A; assay format: 2D, 384-well, CellTiter-Glo. The essentials:
as §1

Another assay concerns FMOC22 (patient-derived mucinous ovarian cancer cells). To be noted: 72 h; library: FO5A; assay format: 2D, 384-well, CellTiter-Glo. The essentials: as §1
In the next assay the test system is FMOC24 (patient-derived high-grade serous ovarian cancer cells). To be noted: 72 h; library: FO5A; assay format: 2D, 384-well, CellTiter-Glo. The essentials: as §1
In the next assay the test system is FMOC25_1 (patient-derived low-grade serous ovarian cancer cells). To be noted: 72 h; library: FO4B; assay format: 2D, 384-well, CellTiter-Glo. The essentials:
as §1

A further assay relates to FMOC25_2 (patient-derived low-grade serous ovarian cancer cells). The following applies: 72 h; library: FO5A; assay format: 2D, 384-well, CellTiter-Glo. The essentials: as §1

`CC(C)(C)C[C@@H]1N[C@@H](C(=O)N[C@H]2CC[C@H](O)CC2)[C@H](c2cccc(Cl)c2F)[C@]12C(=O)Nc1cc(Cl)ccc12`: the drug sensitivity score is 10.3 in the assay with FMOC02_2; 17.9 in the assay on FMOC02_3; 3.1 in the assay on FMOC03; 3.3 with FMOC06; 1.6 with FMOC09; 1.6 in the assay on FMOC14. Besides, the drug sensitivity score in the assay with FMOC22 came to 3.5; in the assay with FMOC24 it was 3.4; with FMOC25_1, 9.9; in the assay on FMOC25_2, 8.4.

For `CC(C)Oc1ccc(C(=O)N[C@H](CNC(=O)CN(C)C)Cc2ccc(-c3cn4cccc([C@H](C)O)c4n3)cc2)cc1Cl`, the drug sensitivity score with FMOC02_2 was determined as 3.8; in the assay with FMOC02_3 it was 11.9; in the assay on FMOC03 it was 5.5; with FMOC06, 2.7; in the assay on FMOC09, 7.3; in the assay with FMOC14, 3.5. The drug sensitivity score in the assay on FMOC22 came to 5.7; in the assay with FMOC24 it was 4.8; in the assay on FMOC25_1, 3.3; in the assay on FMOC25_2, 8.8.

As to `CCc1cncnc1N1CCN(Cc2nc3ccc(C(F)(F)F)cc3[nH]2)CC1`, the drug sensitivity score in the assay with FMOC02_2 was found to be 3.9; in the assay with FMOC02_3, 5.3; with FMOC03, 0.8; with FMOC06, 0.5; in the assay on FMOC09, 0.1; with FMOC14, 1.3. The drug sensitivity score in the assay on FMOC22 came to 1.3; with FMOC24, 5.2; in the assay on FMOC25_1, 1.3; in the assay with FMOC25_2, 6.2.

With `CCn1c(-c2nonc2N)nc2c(C#CC(C)(C)O)ncc(OC[C@H]3CCCNC3)c21`, the drug sensitivity score with FMOC02_2 stood at 10.3; with FMOC02_3 it was 12.5; in the assay on FMOC03, 2; with FMOC06, 4.5; in the assay with FMOC09, 2.4; in the assay on FMOC14 it was 2.7. Besides, the drug sensitivity score in the assay on FMOC22 came out at 1.2; in the assay on FMOC24, 1.6; in the assay with FMOC25_1, 4.5; in the assay on FMOC25_2, 8.1.

Consider `CCn1cc(-c2ccnc3[nH]c(-c4cccc(CN(C)C)c4)cc23)c(-c2ccc(NC(=O)N(C)C)cc2)n1`, for which the drug sensitivity score turned out to be 0 with FMOC02_2; 2.6 in the assay with FMOC02_3; 0 in the assay with FMOC03; 0 in the assay on FMOC06; 0 with FMOC09; 0 in the assay on FMOC14. In addition, the drug sensitivity score worked out at 0.1 in the assay with FMOC22, 0.55 in the assay on FMOC24, 0 with FMOC25_1 and 2.2 in the assay with FMOC25_2.

Regarding `CNC(=O)c1ccccc1Nc1nc(Nc2ccc3c(c2OC)CCC[C@H](N2CCN(CCO)CC2)C3)ncc1Cl`, the drug sensitivity score in the assay with FMOC02_2 is 11.1; in the assay on FMOC02_3, 11.7; with FMOC03, 7.2; with FMOC06, 10.3; in the assay on FMOC09, 8.3; in the assay with FMOC14, 6. Moreover, the drug sensitivity score in the assay on FMOC22 was 7.1; in the assay with FMOC24 it was 5.95; with FMOC25_1, 9; in the assay with FMOC25_2 it was 10.3.

Turning to `CNc1ncc2cc(-c3cc(NC(=O)NCCC(C)(C)C)c(F)cc3C)c(C)nc2n1`, the drug sensitivity score was found to be 12.5 in the assay on FMOC02_2; 16.9 with FMOC02_3; 12 in the assay with FMOC03; 11.8 with FMOC06; 9.5 with FMOC09; 1.3 with FMOC14. For the same compound, the drug sensitivity score with FMOC22 stood at 9.3; in the assay with FMOC24, 1.7; with FMOC25_1 it was 11.1; in the assay on FMOC25_2, 14.8.

`C[C@@H](Oc1cc(-n2cnc3ccc(CN4CCN(C)CC4)cc32)sc1C(N)=O)c1ccccc1C(F)(F)F`: the drug sensitivity score in the assay on FMOC02_2 amounted to 8.2; in the assay on FMOC02_3 it was 9.1; in the assay on FMOC03, 7.3; in the assay on FMOC06 it was 5.3; in the assay on FMOC09 it was 12.6; with FMOC14, 3.9. Besides, the drug sensitivity score in the assay on FMOC22 is 11.5; in the assay with FMOC24 it was 6.1; in the assay with FMOC25_1, 7.4; in the assay with FMOC25_2, 11.9.

As to `C[C@@]1(C(=O)Nc2ccc(F)nc2)CCCN1c1nc(Nc2cc(C3CC3)n[nH]2)c2cccn2n1`, the drug sensitivity score in the assay with FMOC02_2 worked out at 14.3; in the assay with FMOC02_3, 18.9; in the assay on FMOC03, 7; in the assay with FMOC06, 14.7; with FMOC09, 14.7; in the assay on FMOC14 it was 2.2. Also, the drug sensitivity score in the assay with FMOC22 is 9.5; with FMOC24, 2.75; in the assay with FMOC25_1, 9.2; in the assay on FMOC25_2, 14.6.

Regarding `Cc1nc(Nc2n[nH]c3c2CN(C(=O)N[C@H](CN(C)C)c2ccccc2)C3(C)C)c2sccc2n1`, the drug sensitivity score in the assay on FMOC02_2 stood at 12.8; in the assay with FMOC02_3 it was 20.9; with FMOC03, 10.6; in the assay with FMOC06 it was 13.7; in the assay with FMOC09, 10.2; in the assay on FMOC14, 6.5. Moreover, the drug sensitivity score stood at 10.5 in the assay with FMOC22, 8.1 in the assay on FMOC24, 16.7 with FMOC25_1 and 26.6 in the assay with FMOC25_2.

In the case of `Cc1nn(C)c(COc2ccc(N3CCN(S(=O)(=O)N(C)C)CC3)cc2)c1-c1cccc2c(CCCOc3cccc4ccccc34)c(C(=O)O)n(CCN3CCOCC3)c12`, the drug sensitivity score was 6 with FMOC02_2; 7.5 in the assay on FMOC02_3; 5.9 in the assay with FMOC03; 7 in the assay with FMOC06; 5.9 in the assay on FMOC09; 7.6 with FMOC14. Besides, the drug sensitivity score was 8.2 in the assay with FMOC22, 6.7 in the assay with FMOC24, 5.6 with FMOC25_1 and 4.7 with FMOC25_2.

As to `Cn1cc(C2=Nc3cc(NC(=O)C(N)C4CCCCC4)cc4c3C2=CNNC4=O)cn1` (stereo not given), the drug sensitivity score stood at 7.3 in the assay on FMOC02_2; 9.9 in the assay with FMOC02_3; 4.3 in the assay with FMOC03; 3 in the assay on FMOC06; 7.6 with FMOC09; 6.8 in the assay on FMOC14. Moreover, the drug sensitivity score is 8.3 in the assay on FMOC22, 10.1 in the assay with FMOC24, 11.7 in the assay on FMOC25_1 and 10.9 with FMOC25_2.

Regarding `O=C(NOC[C@H](O)CO)c1ccc(F)c(F)c1Nc1ccc(I)cc1F`, the drug sensitivity score in the assay with FMOC02_2 turned out to be 10.4; in the assay on FMOC02_3 it was 7; in the assay with FMOC03, 11.5; in the assay with FMOC06, 11.3; in the assay on FMOC09, 8; with FMOC14 it was 0.2. In addition, the drug sensitivity score with FMOC22 was 7.5; in the assay with FMOC24 it was 0.2; with FMOC25_1, 7; in the assay on FMOC25_2 it was 5.2.

With `O=C(Nc1ccc2[nH]nc(-c3ccncc3)c2c1)[C@@H]1CCN(CC(=O)N2CCN(c3ccc(-c4ncccn4)cc3)CC2)C1`, the drug sensitivity score was found to be 14.3 with FMOC02_2; 16.8 in the assay on FMOC02_3; 18.4 in the assay on FMOC03; 14.9 in the assay with FMOC06; 9.6 with FMOC09; 1.1 in the assay with FMOC14. The drug sensitivity score in the assay with FMOC22 stood at 11.8; with FMOC24, 3.15; in the assay on FMOC25_1 it was 16.6; in the assay on FMOC25_2, 18.

As to `COc1ccc(C[C@H](NC(=O)[C@H](C)NC(=O)CN2CCOCC2)C(=O)N[C@@H](Cc2ccccc2)C(=O)C2(C)CO2)cc1` (stereo in doubt) [ONX-0914], the drug sensitivity score was 12.5 with FMOC02_2; 19.3 in the assay on FMOC02_3; 16.5 in the assay on FMOC03; 16.9 in the assay with FMOC06; 12.8 with FMOC09; 14.1 with FMOC14. The drug sensitivity score with FMOC22 came to 14.9; in the assay with FMOC24 it was 20.9; in the assay on FMOC25_1 it was 16.4; with FMOC25_2, 18.8.
